Laboratory results: patent publication US20090023773A1, “COMPOSITIONS AND METHODS FOR MODULATING GATED ION CHANNELS” (PainCeptor Pharma Corporation, priority 2007, published 2009)

Assays:
[1] = biological target: T1, recombinant homomeric hASIC1a channels (Homo sapiens, UniProt P78348); test: Two-electrode voltage clamp in Xenopus laevis oocytes expressing gated ion channels (Example 4); format: cell-based; conditions: for IC50: Table 1, generated using oocytes as in Example 4; for reduction in the current evoked by a mild pH stimulation: acid-induced inward currents in oocytes injected with hASIC1a cDNA, FIGS. 2A-2C
T1 construct: expressed in transfected cells; host or cells: Xenopus laevis oocytes (nuclear microinjection of expression vector such as pcDNA3)
T1 sequence (P78348 1-528): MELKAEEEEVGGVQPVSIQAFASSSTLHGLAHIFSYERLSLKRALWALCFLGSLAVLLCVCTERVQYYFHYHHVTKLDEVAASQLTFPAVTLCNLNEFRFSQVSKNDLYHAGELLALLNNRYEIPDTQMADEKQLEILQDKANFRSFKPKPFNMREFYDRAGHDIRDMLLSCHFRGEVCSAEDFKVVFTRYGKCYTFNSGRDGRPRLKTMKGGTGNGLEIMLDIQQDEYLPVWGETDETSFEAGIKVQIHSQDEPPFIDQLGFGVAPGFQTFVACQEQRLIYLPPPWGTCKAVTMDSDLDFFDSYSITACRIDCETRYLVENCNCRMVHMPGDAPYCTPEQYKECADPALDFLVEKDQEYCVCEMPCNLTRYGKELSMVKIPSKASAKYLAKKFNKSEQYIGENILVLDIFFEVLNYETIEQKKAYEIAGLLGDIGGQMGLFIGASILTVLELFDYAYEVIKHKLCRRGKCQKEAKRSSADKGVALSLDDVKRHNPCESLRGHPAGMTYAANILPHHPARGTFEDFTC

[2] = biological target: T2, hASIC1a (Homo sapiens, UniProt P78348); test: Fluorescent calcium dye (Fluo-4-NW) assay in cells expressing hASIC1a (Example 1); format: cell-based; conditions: CHO cells stably expressing hASIC1a, mild acidic buffer, increasing concentrations; FIGS. 1A-1C
T2 construct: expressed in transfected cells
T2 sequence (P78348 1-528): T1 sequence (P78348 1-528)
Method: ASIC1a expressing CHO cells are grown in culture medium (DMEM with 10% FBS), in polystyrene culture flasks ([…]) at 37° C. in a humidified atmosphere of 5% CO2. Confluency of cells should be 70-90% on day of plating. Cells are rinsed with 10 ml of PBS and cells are re-suspended by addition of culture medium and trituration with a 25 ml pipette. The cells are seeded at a density of approximately 10^4 cells/ml (50 μl/well and then brought to a total volume of 150 μl/well with culture medium, following 30 minutes incubation) in black-walled, clear bottom, 96-well plates pre-treated with poly-D-lysine (from BD Bioscience). Plated cells were allowed to proliferate for 48-72 h before loading with dye. Fluo-4-NW (500 μg, DiscoveRX) is dissolved in 110 μl DMSO. The Fluo-4-NW stock solution (1000×) is diluted with the assay buffer. A water soluble stock solution (100×) of probenicid (DiscoveRX) and a stock solution (1000×) of pluronic acid (P-127, Molecular Probes) are also added in the loading buffer containing Fluo-4NW dye. The culture medium is aspirated from the wells, and 100 μl of the Fluo-4-NW loading solution is added to each well. The cells are incubated at 37° C. for 30 min. followed by 30 min. incubation at room temperature. The assay buffer contains 90 mM NaCl, 5 mM KCl, 4 mM CaCl2, 0.8 mM MgSO4, 50 mM NMDG, 5 mM Glucose-D, 10 mM HEPES, pH 7.4. After the loading time, the loading buffer is not removed and the fluorescence is measured in FlexStation™ (Molecular Devices, USA), or any other suitable equipment known to the skilled in the art. Temperature: 25° C. First addition: 50 μl test solution at a rate of 26 μl/sec and a starting height of 125 μl. […] Reading intervals: pre-incubation—120 sec. antagonist phase, addition of MES at 145 sec. and reading time with agonist 100 sec (total run time of 240 sec.). Fluorescence obtained after stimulation is corrected for the mean basal fluorescence (in modified Assay Buffer). […] Gated-channel activity was determined by measuring intracellular calcium variation using a fluorescent calcium dye (Fluo-4-NW).

[3] = system: chemically-induced spontaneous pain evoked by intraplantar injection of formalin; test: Formalin test, model of acute tonic pain (Example 7); format: in vivo; conditions: rat; SC, 10 and 300 μmol/kg, 30 min prior to formalin; FIG. 3A
Method: Male Sprague-Dawley rats are housed together in groups of three animals under standard conditions with unrestricted access to food and water. All experiments are conducted according to the ethical guidelines for investigations of experimental pain in conscious animals (Zimmerman, 1983).
Assessment of formalin-induced flinching behavior in normal, uninjured rats (body weight 200-300 g) is made after formalin (2.5% in saline, 50-100 μl, s.c.) is injected into the plantar surface of the hindpaw using a 27 G needle. Rats are pretreated with test compounds either administered intravenously (IV), by subcutaneous injection (SC) or by orally (PO).
Nociceptive behavior is determined manually every 5 min by measuring the amount of time spent in each of four behavioral categories: 0, treatment of the injected hindpaw is indistinguishable from that of the contralateral paw; 1, the injected paw has little or no weight placed on it; 2, the injected paw is elevated and is not in contact with any surface; 3, the injected paw is licked, bitten, or shaken. A weighted nociceptive score, ranging from 0 to 3 is calculated by multiplying the time spent in each category by the category weight, summing these products, and dividing by the total time for each 5 min block of time. (Coderre et al., Pain 1993; 54: 43). On the basis of the resulting response patterns, […] of nociceptive behavior are identified and scored: first phase (P1; 0-5 min), interphase (Int; 6-15 min), second phase (P2; […]), phase 2A (P2A; 16-40 min) and phase 2B (P2B; 41-60 min).
Statistical analysis is performed using the Prism™ 4.01 software package (GraphPad, San Diego, Calif., USA). The difference in response levels between treatment groups and control vehicle group is analyzed using an ANOVA followed by Bonferroni's method for post-hoc pair-wise comparisons. A p value <0.05 is considered to be significant.

[4] = system: acute paw inflammation caused by intraplantar injection of λ-carrageenan; test: Carrageenan model for pain (Example 8); format: in vivo; conditions: rat; 120 mg/kg PO, 30 min prior to carrageenan; 4 h post-carrageenan
Method: Acute inflammatory hyperalgesia is induced in rats by unilateral injection of 150 μl of a 3% solution of λ-carrageenan into the plantar surface of the left hind paw 3-5 hours prior to testing. Thermal hyperalgesia, mechanical allodynia, mechanical hyperalgesia, weight bearing asymmetry and paw inflammation were determined. Rats are pretreated with test compounds either administered intravenously (IV), by subcutaneous injection (SC) or by oral gavage (PO).
Thermal nociceptive thresholds are determined according to the method described elsewhere (Hargreaves et al., 1988). Briefly, through the glass surface, a radiant heat source (8V, 50 W projector bulb) is focused onto the plantar surface of the hind paw. The rat's paw-withdrawal latency to this stimulus is recorded to the nearest 0.1 s. Each latency score is an average of three trials, which are separated by at least 5 min. In all rats, both the injured and uninjured hind paws are similarly tested, allowing direct comparisons between inflamed and non-inflamed paws. […]
Mechanical hyperalgesia is determined by measuring the difference of withdrawal thresholds in response to increasing pressure in the inflamed vs contralateral paw using the Randall-Sellito Paw pressure meter (IITC Life Science) (Randall L O and Sellito J J., 1957). Briefly, rats are held in a contention jacket suspended by a stand and allowed to acclimate for 10 min. Then the tips of the paw pressure applicator are positioned close to the middle of the plantar and the dorsal area of the paw, avoiding the saphenous nerve innervations and an increasing pressure is applied until the rat removes it. Measures are performed in triplicate for each paw by alternating each paw with an interval of at least 1 min to avoid sensitization. […]
Carrageenan induced paw oedema is measured with a plethysmometer (IITC Life Science). Briefly, a mark is made on the ankles of the rat and the ipsi and contralateral paw are submerged 3 times into water up to the mark in order to determine the paw volume by calculation of water displacement.

SMILES	IC50 [1]	reduction in the current evoked by a mild pH stimulation [1]	inhibition of acid-induced hASIC1a activity (intracellular calcium variation) [2]	pain intensity as evaluated by the licking behavior [3]	mechanical hyperalgesia [4]	size of the inflammation [4]	thermal hyperalgesia [4]
Cc1cc(OC2CCN(Cc3ccccc3C(=O)O)CC2)c2cccc(F)c2n1 [Compound 1]	0.1 to 10 µM	clear dose-dependent reduction	dose-dependently inhibited	dose-dependent reduction	reversed	reduced	reversed
Cc1cc(OC2CCN(Cc3ccccc3F)C(C)C2)c2cccc(F)c2n1 (stereo not shown) [Compound 6, 8-Fluoro-4-[1-(2-fluoro-benzyl)-2-methyl-piperidin-4-yloxy]-2-methyl-quinoline]	0.1 to 10 µM	clear dose-dependent reduction	dose-dependently inhibited	–	–	–	–
